Test results: patent US20110086836A1, “Substituted Phenylpiperidine Derivatives As Melanocortin-4 Receptor Modulators” (Santhera Pharmaceuticals (Schweiz) AG, priority 2006, published 2011)

Experiments:
[1] = molecular target: T1, human melanocortin-4 receptor (hMC-4R) (Homo sapiens, UniProt P32245); assay: hMC-4R binding assay (fluorescence polarization, competition with fluorescence labeled NDP-alpha-MSH); settings: HEK293 cell membrane preparations expressing human melanocortin receptors
T1 construct: expressed in transfected cells; host or cells: HEK293 (membrane preparations)
Method: The plate is incubated for 5 h at room temperature.
The degree of fluorescence polarization is determined with a fluorescence polarization microplate reader.

[2] = molecular target: T1, human melanocortin-4 receptor (hMC-4R); assay: hMC-4R functional assay (membrane based cAMP fluorescence polarization); format: biochemical; design: concentration or dose not given beside the values; settings: cAMP produced compared to stimulation with NDP-alpha-MSH
Method: Agonistic activity of human melanocortin receptors is determined in a homogeneous membrane based assay.
Membrane preparations from HEK293 cells expressing the human melanocortin receptors are added. After a short preincubation period, an appropriate amount of ATP, GTP and the cAMP antibody is added and the plate is further incubated before the fluorescence labeled cAMP conjugate is dispensed. The plate is incubated for 2 h at 4° C. before it is read on a fluorescence polarization microplate reader.

T1 sequence (P32245 whole entry): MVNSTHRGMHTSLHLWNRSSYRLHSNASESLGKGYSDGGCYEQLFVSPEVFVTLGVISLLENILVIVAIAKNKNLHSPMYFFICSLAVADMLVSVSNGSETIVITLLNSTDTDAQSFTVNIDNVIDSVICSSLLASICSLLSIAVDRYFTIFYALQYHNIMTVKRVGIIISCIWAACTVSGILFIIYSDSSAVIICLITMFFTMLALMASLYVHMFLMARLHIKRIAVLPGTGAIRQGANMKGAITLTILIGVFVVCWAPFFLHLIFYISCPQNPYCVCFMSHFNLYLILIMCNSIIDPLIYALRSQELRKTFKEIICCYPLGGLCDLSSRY

IC50 [1] [nM]	% activation functional assay [2] [%]	SMILES
3.7	0	O=C(N[C@H](Cc1ccc(Cl)cc1Cl)C(=O)N1CCC(c2ccccc2OCCN2CCCC2)CC1)N1CCCC1 [Example 2]
9.6	0	O=C(N[C@H](Cc1ccc(Cl)cc1Cl)C(=O)N1CCC(c2ccccc2CCN2CCC(F)CC2)CC1)N1CCCC1 [Example 36]
5.3	0	O=C(N[C@H](Cc1ccc(Cl)cc1Cl)C(=O)N1CCC(c2ccccc2CCCN2CCCC2)CC1)N1CCOCC1 [Example 95]
4.4	0	O=C(N[C@H](Cc1ccc(Cl)cc1Cl)C(=O)N1CCC(c2ccccc2OCCN2CCCC2)CC1)N1CCC(F)(F)C1 [Example 110]
3	0	CN(C)[C@H]1CCN(C(=O)N[C@H](Cc2ccc(Cl)cc2Cl)C(=O)N2CCC(c3ccccc3OCCN3CCCC3)CC2)C1 [Example 113]
